Reference: paper PMC6540285, “Evaluation of Protein Kinase Inhibitors with PLK4 Cross-Over Potential in a Pre-Clinical Model of Cancer” (International Journal of Molecular Sciences, 2019)

Key:
ABL1 E255K = ABL1 E255K (Homo sapiens, UniProt P00519, E255K); test: SelectScreen kinase profiling, ZLYTE; type: biochemical
AKT2 (PKB beta) = AKT2 (PKB beta) (Homo sapiens, UniProt P31751); test: SelectScreen kinase profiling, ZLYTE; type: biochemical
ALK = ALK (Homo sapiens, UniProt Q9UM73); test: SelectScreen kinase profiling, ZLYTE; type: biochemical
AXL = AXL (Homo sapiens, UniProt P30530); test: SelectScreen kinase profiling, ZLYTE; type: biochemical
CAMK2B (CaMKII beta) = CAMK2B (CaMKII beta) (Homo sapiens, UniProt Q13554); test: SelectScreen kinase profiling, ZLYTE; type: biochemical
Chain of CAMK2B (CaMKII beta) (Q13554 whole entry): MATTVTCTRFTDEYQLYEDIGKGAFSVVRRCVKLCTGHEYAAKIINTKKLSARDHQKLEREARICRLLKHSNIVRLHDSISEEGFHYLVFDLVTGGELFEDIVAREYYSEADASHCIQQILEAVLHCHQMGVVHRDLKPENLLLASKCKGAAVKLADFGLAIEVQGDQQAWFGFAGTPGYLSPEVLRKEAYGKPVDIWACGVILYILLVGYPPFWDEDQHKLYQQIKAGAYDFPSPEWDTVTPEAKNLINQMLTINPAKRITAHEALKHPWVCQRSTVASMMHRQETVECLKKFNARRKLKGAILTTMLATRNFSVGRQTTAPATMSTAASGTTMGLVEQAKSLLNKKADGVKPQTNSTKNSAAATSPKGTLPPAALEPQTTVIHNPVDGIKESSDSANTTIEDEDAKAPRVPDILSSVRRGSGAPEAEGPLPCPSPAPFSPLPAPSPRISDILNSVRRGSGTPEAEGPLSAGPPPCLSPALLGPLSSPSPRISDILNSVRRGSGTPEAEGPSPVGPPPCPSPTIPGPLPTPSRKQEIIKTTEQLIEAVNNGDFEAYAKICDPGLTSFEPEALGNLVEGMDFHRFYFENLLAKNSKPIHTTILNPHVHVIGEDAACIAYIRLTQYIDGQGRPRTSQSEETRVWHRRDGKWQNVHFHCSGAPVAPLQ

CDC42 BPA (MRCKA) = CDC42 BPA (MRCKA) (Homo sapiens, UniProt Q5VT25); test: SelectScreen kinase profiling, ZLYTE; type: biochemical
DDR1 = DDR1 (Homo sapiens, UniProt Q08345); test: SelectScreen kinase profiling, LanthaScreen binding; settings: DDR1, 10 µM
EPHA7 = EPHA7 (Homo sapiens, UniProt Q15375); test: as above; settings: EPHA7, 10 µM
P450 2C19 [1] = biological target: T1, P450 2C19 (Homo sapiens, UniProt P33261)
T1 sequence (P33261 whole entry): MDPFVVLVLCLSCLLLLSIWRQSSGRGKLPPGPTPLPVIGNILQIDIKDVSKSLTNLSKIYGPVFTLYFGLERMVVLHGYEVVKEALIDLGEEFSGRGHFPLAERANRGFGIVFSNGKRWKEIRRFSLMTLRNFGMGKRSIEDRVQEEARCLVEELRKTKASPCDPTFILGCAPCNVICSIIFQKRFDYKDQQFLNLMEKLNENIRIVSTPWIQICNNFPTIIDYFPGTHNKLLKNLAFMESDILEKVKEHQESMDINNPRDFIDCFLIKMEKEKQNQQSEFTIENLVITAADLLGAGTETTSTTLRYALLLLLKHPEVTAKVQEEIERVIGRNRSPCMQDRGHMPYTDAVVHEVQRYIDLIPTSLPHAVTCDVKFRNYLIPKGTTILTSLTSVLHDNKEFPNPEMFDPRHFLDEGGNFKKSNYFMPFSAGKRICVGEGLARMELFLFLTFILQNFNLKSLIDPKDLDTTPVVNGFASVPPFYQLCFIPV

ERN2 = ERN2 (Homo sapiens, UniProt Q76MJ5); test: SelectScreen kinase profiling, LanthaScreen binding; settings: ERN2, 10 µM
FLT3 ITD = test: as above; settings: 10 µM
GAK = GAK (Homo sapiens, UniProt O14976); test: as above
HUNK = HUNK (Homo sapiens, UniProt P57058); test: as above
JAK1 = JAK1 (Homo sapiens, UniProt P23458); test: SelectScreen kinase profiling, ZLYTE; type: biochemical; settings: JAK1, 10 µM
JAK2 JH1 JH2 = biological target: T2, JAK2 JH1 JH2 (Homo sapiens, UniProt O60674); test: SelectScreen kinase profiling, ZLYTE; type: biochemical; settings: JAK2 JH1 JH2, 10 µM
T2 construct: JAK2 JH1 JH2

JAK3 = JAK3 (Homo sapiens, UniProt P52333); test: SelectScreen kinase profiling, ZLYTE; type: biochemical; settings: JAK3, 10 µM
LIMK2 = LIMK2 (Homo sapiens, UniProt P53671); test: SelectScreen kinase profiling, LanthaScreen binding; settings: LIMK2, 10 µM
MAP2K2 (MEK2) = MAP2K2 (MEK2) (Homo sapiens, UniProt P36507); test: SelectScreen kinase profiling, ZLYTE; type: biochemical
MAP3K14 (NIK) = MAP3K14 (NIK) (Homo sapiens, UniProt Q99558); test: SelectScreen kinase profiling, LanthaScreen binding
Chain of MAP3K14 (NIK) (Q99558 whole entry): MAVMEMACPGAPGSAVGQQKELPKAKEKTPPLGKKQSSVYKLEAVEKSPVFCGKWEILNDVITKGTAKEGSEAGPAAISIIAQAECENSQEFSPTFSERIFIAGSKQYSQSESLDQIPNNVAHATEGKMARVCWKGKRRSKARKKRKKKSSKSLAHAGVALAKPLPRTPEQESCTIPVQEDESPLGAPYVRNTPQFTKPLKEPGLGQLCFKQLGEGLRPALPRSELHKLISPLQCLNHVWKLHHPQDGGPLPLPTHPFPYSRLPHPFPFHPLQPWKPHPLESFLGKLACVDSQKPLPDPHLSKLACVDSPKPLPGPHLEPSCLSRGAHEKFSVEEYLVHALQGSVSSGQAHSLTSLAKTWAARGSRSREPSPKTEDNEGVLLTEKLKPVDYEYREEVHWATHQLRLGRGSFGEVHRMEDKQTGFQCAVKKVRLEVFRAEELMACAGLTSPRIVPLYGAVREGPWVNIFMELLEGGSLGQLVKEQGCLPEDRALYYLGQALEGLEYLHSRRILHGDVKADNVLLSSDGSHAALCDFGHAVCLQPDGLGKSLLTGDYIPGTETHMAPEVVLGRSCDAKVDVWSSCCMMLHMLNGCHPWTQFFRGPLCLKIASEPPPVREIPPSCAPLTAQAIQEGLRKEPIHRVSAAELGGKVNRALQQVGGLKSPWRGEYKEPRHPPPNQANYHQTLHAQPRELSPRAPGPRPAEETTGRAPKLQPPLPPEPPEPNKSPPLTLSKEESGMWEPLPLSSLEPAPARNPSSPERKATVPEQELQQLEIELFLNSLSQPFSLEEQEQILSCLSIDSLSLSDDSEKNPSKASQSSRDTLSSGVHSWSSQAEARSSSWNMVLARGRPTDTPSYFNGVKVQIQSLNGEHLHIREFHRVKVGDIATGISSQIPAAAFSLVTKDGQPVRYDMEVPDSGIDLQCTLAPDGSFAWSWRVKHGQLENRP

MAP3K19 (YSK4) = MAP3K19 (YSK4) (Homo sapiens, UniProt Q56UN5); test: SelectScreen kinase profiling, ZLYTE; type: biochemical
MAP4K1 (HPK1) = MAP4K1 (HPK1) (Homo sapiens, UniProt Q92918); test: SelectScreen kinase profiling, LanthaScreen binding
MAPK9 (JNK2) = MAPK9 (JNK2) (Homo sapiens, UniProt P45984); test: SelectScreen kinase profiling, ZLYTE; type: biochemical
MET M1250T = MET M1250T (Homo sapiens, UniProt P08581, M1250T); test: SelectScreen kinase profiling, ZLYTE; type: biochemical
PDGFRA D842V = PDGFRA D842V (Homo sapiens, UniProt P16234, D842V); test: SelectScreen kinase profiling, ZLYTE; type: biochemical
Chain of PDGFRA D842V (P16234 24-1089 D842V): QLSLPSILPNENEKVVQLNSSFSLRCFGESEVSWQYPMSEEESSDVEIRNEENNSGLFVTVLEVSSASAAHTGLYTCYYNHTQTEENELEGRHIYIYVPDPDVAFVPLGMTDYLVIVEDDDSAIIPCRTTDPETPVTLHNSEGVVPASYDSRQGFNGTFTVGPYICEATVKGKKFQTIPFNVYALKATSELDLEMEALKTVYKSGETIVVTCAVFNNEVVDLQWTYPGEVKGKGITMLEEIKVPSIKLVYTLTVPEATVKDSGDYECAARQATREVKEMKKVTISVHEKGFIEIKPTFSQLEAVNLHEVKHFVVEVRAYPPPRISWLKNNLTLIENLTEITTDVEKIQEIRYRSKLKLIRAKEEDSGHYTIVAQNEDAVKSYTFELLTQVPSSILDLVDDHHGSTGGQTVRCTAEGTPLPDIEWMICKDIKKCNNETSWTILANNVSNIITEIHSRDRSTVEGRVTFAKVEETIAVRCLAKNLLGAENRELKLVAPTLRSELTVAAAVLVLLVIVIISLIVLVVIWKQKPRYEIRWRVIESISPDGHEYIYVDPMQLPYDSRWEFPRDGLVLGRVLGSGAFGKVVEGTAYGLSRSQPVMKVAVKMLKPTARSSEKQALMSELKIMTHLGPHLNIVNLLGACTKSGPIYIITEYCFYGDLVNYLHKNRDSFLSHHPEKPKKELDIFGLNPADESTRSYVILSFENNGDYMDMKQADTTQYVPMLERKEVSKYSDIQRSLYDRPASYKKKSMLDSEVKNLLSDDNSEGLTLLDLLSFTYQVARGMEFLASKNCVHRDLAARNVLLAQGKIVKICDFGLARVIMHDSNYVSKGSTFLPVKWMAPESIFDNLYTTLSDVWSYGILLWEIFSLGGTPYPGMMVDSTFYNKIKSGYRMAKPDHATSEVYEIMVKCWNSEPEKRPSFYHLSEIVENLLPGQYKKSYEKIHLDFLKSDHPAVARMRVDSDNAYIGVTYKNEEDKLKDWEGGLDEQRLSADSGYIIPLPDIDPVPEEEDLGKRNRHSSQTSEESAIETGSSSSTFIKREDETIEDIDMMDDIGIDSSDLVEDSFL

PIK3C2A (PI3K-C2 alpha) = PIK3C2A (PI3K-C2 alpha) (Homo sapiens, UniProt O00443); test: SelectScreen kinase profiling, Adapta; type: biochemical
PIP5K1A = PIP5K1A (Homo sapiens, UniProt Q99755); test: SelectScreen kinase profiling, Adapta; type: biochemical
PKMYT1 = PKMYT1 (Homo sapiens, UniProt Q99640); test: SelectScreen kinase profiling, LanthaScreen binding; settings: PKMYT1, 10 µM
RET Y791F = RET Y791F (Homo sapiens, UniProt P07949, Y791F); test: SelectScreen kinase profiling, ZLYTE; type: biochemical
SGK (SGK1) = SGK (SGK1) (Homo sapiens, UniProt O00141); test: SelectScreen kinase profiling, ZLYTE; type: biochemical
STK17A (DRAK1) = STK17A (DRAK1) (Homo sapiens, UniProt Q9UEE5); test: SelectScreen kinase profiling, LanthaScreen binding
TESK1 = TESK1 (Homo sapiens, UniProt Q15569); test: as above; settings: TESK1, 10 µM
Description: Kinase Technology % Inhibition Avg Kinase Technology % Inhibition Avg […]
TESK1 LanthaScreen 37 ZAP70 ZLYTE 24
cleavage (Thermo Fisher Scientific, USA)

TGFBR1 (ALK5) = TGFBR1 (ALK5) (Homo sapiens, UniProt P36897); test: as above
Description: Kinase Technology % Inhibition Avg Kinase Technology % Inhibition Avg

YES1 = YES1 (Homo sapiens, UniProt P07947); test: SelectScreen kinase profiling, ZLYTE; type: biochemical; settings: YES1, 10 µM
hERG channel [2] = biological target: T3, hERG channel (Homo sapiens, UniProt Q12809); test: biochemical
T3 sequence (Q12809 whole entry): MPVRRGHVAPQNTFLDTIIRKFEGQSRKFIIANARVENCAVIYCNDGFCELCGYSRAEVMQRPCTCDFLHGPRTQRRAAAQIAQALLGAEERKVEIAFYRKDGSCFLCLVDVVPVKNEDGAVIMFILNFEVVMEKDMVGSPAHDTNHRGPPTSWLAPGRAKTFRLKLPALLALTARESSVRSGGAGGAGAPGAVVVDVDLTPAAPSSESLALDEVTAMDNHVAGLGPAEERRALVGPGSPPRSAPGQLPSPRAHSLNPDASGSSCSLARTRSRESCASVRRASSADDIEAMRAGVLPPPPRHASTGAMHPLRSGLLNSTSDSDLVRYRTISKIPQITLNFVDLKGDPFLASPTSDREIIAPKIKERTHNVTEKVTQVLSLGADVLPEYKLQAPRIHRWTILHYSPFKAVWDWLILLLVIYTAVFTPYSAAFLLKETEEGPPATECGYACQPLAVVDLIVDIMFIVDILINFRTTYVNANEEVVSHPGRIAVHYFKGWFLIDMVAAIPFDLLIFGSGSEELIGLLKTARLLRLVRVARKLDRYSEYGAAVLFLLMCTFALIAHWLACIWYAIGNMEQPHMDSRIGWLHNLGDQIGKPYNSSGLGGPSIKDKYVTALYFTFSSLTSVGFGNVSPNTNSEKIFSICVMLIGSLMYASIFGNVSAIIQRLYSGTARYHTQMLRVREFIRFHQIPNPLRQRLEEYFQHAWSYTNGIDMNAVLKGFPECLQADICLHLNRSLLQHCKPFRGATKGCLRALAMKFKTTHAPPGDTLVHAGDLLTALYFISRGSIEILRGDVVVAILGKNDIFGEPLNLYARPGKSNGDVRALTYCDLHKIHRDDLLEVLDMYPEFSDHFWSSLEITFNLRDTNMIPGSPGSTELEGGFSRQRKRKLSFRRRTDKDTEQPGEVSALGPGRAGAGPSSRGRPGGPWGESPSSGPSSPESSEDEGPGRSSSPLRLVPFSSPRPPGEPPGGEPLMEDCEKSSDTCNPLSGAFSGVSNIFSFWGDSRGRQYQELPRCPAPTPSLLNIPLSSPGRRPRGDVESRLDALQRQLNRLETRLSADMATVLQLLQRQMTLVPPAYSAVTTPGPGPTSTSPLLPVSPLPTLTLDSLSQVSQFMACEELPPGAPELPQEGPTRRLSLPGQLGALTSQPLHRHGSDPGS

P450 2C19 [3] = biological target: T1, P450 2C19; test: SelectScreen P450 Vivid biochemical assay; settings: 10000nM; substrate EOMCC
P450 2B6 = P450 2B6 (Homo sapiens, UniProt P20813); test: SelectScreen P450 Vivid biochemical assay; settings: 10000nM; substrate BOMCC
P450 2C9 = P450 2C9 (Homo sapiens, UniProt P11712); test: SelectScreen P450 Vivid biochemical assay; settings: 10000nM; substrate BOMF
hERG channel [4] = biological target: T3, hERG channel; test: Predictor hERG fluorescence polarization assay; settings: 10000nM

Chain of AKT2 (PKB beta) (P31751 whole entry): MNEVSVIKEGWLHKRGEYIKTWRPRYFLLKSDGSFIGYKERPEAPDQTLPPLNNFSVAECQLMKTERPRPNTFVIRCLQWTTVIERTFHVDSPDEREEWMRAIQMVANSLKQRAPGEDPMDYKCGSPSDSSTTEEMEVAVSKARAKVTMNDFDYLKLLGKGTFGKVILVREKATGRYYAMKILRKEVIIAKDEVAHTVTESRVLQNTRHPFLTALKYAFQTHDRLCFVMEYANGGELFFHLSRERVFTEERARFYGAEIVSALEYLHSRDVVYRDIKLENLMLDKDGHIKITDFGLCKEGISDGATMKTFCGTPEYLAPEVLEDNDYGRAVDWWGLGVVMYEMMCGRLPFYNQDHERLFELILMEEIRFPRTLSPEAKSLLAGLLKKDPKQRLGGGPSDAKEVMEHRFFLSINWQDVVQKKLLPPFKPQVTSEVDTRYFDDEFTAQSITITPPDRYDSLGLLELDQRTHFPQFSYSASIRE

Q: With O=C(c1ccc(/C=C/c2n[nH]c3ccccc23)cc1)N1CCNCC1 [KW-2449] as the compound, how does the inhibition at 10 µM (ABL1 E255K) read?
A: 99%

Q: And the inhibition at 10 µM (AKT2 (PKB beta))?
A: 29%

Q: And the inhibition at 10 µM (ALK)?
A: 101%

Q: And the inhibition at 10 µM (AXL)?
A: 95%

Q: And the inhibition at 10 µM (CAMK2B (CaMKII beta))?
A: 32%

Q: And the inhibition at 10 µM (CDC42 BPA (MRCKA))?
A: 32%

Q: What about the inhibition at 10 µM (DDR1) of the same compound?
A: 55%

Q: What about the inhibition at 10 µM (EPHA7) of the same compound?
A: 66%

Q: What about the IC50 (P450 2C19 [1]) of the same compound?
A: 9.41 µM

Q: What about the inhibition at 10 µM (ERN2) of the same compound?
A: 74%

Q: And the “% Inhibition Avg” value (FLT3 ITD)?
A: 5%

Q: And the inhibition at 10 µM (GAK)?
A: 67%

Q: And the inhibition at 10 µM (HUNK)?
A: 84%

Q: What about the inhibition at 10 µM (JAK1) of the same compound?
A: 94%

Q: What about the inhibition at 10 µM (JAK2 JH1 JH2) of the same compound?
A: 96%

Q: What about the inhibition at 10 µM (JAK3) of the same compound?
A: 98%

Q: And the inhibition at 10 µM (LIMK2)?
A: 24%

Q: And the inhibition at 10 µM (MAP2K2 (MEK2))?
A: 75%

Q: And the inhibition at 10 µM (MAP3K14 (NIK))?
A: 90%

Q: What about the inhibition at 10 µM (MAP3K19 (YSK4)) of the same compound?
A: 98%

Q: What about the inhibition at 10 µM (MAP4K1 (HPK1)) of the same compound?
A: 76%

Q: And the inhibition at 10 µM (MAPK9 (JNK2))?
A: 87%

Q: What about the inhibition at 10 µM (MET M1250T) of the same compound?
A: 96%

Q: And the inhibition at 10 µM (PDGFRA D842V)?
A: 98%

Q: What about the inhibition at 10 µM (PIK3C2A (PI3K-C2 alpha)) of the same compound?
A: 4%

Q: What about the inhibition at 10 µM (PIP5K1A) of the same compound?
A: 16%

Q: And the inhibition at 10 µM (PKMYT1)?
A: -61%

Q: And the inhibition at 10 µM (RET Y791F)?
A: 100%

Q: And the inhibition at 10 µM (SGK (SGK1))?
A: 98%

Q: And the inhibition at 10 µM (STK17A (DRAK1))?
A: 85%

Q: What about the inhibition at 10 µM (TESK1) of the same compound?
A: 37%

Q: And the inhibition at 10 µM (TGFBR1 (ALK5))?
A: 85%

Q: And the inhibition at 10 µM (YES1)?
A: 95%

Q: And the IC50 (hERG channel [2])?
A: > 10 µM

Q: What about the “% Inhibition 2C19 EOMCC” value (P450 2C19 [3]) of the same compound?
A: 51%

Q: What about the “% Inhibition 2B6 BOMCC” value (P450 2B6) of the same compound?
A: 48%

Q: What about the “% Inhibition 2C9 BOMF” value (P450 2C9) of the same compound?
A: -2%

Q: What about the “hERG % Inhibition” value (hERG channel [4]) of the same compound?
A: 19%
